According to ChEMBL document CHEMBL1148812, “4-[omega-[4-arylpiperazin-1-yl]alkoxy]phenyl)imidazo[1,2-a]pyridine derivatives: fluorescent high-affinity dopamine D3 receptor ligands as potential probes for receptor visualization” (J Med Chem, 2007):

Experiments:
D(3) dopamine receptor = D(3) dopamine receptor (Homo sapiens, UniProt P35462)
Description: Displacement of [3H]spiroperidol from human cloned dopamine D3 receptor

D(2) dopamine receptor [1] = target: T1, D(2) dopamine receptor (Homo sapiens, UniProt P14416)
D(2) dopamine receptor [2] = target: T1, D(2) dopamine receptor; assay: Displacement of [3H]spiroperidol from human cloned dopamine D2L receptor at 10 uM

T1 sequence (P14416 whole entry): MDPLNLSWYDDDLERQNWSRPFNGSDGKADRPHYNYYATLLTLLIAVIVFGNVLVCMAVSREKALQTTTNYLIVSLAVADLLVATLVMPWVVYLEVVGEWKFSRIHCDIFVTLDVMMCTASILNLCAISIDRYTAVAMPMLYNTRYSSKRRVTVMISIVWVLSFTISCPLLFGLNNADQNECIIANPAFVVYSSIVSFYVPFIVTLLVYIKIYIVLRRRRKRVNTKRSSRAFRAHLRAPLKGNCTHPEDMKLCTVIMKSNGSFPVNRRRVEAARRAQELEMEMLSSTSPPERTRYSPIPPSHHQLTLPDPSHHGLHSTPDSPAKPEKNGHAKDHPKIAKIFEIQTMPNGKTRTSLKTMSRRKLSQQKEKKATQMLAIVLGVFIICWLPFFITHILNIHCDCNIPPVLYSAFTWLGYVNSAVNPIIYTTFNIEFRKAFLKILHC
Sequence of D(3) dopamine receptor (P35462 whole entry): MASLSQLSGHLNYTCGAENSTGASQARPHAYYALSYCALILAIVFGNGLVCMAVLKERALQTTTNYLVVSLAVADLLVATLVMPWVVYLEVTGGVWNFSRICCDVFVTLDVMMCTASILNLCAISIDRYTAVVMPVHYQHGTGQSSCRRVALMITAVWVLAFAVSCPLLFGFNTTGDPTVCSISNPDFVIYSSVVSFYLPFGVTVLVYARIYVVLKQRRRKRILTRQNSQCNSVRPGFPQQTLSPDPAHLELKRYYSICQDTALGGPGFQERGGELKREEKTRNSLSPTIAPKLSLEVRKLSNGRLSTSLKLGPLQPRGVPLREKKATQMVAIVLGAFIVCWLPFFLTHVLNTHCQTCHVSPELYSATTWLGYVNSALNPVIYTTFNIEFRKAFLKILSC

Row | Structure (SMILES) | Ki (D(3) dopamine receptor) [nM] | Ki (D(2) dopamine receptor [1]) [nM] | inhibition (D(2) dopamine receptor [2]) [%]
1 | Cc1ccc2nc(-c3ccc(OCCCCN4CCN(c5cccc(Cl)c5Cl)CC4)cc3)cn2c1 | 8 | 149 | 
2 | COc1ccccc1N1CCN(CCCOc2ccc(-c3cn4cccc(C)c4n3)cc2)CC1 | 50 | 49 | 
3 | Cc1ccn2cc(-c3ccc(OCCCN4CCN(c5cccc(Cl)c5Cl)CC4)cc3)nc2c1 | 8 | 83 | 
4 | COc1ccccc1N1CCN(CCCOc2ccc(-c3cn4ccccc4n3)cc2)CC1 | 1.6 | 49 | 
5 | Cc1ccn2cc(-c3ccc(OCCCCN4CCN(c5cccc(Cl)c5Cl)CC4)cc3)nc2c1 | 60 | 111 | 
6 | COc1ccccc1N1CCN(CCCCOc2ccc(-c3cn4cc(C)ccc4n3)cc2)CC1 | 146 | 47 | 
7 | COc1ccccc1N1CCN(CCCCOc2ccc(-c3cn4ccc(C)cc4n3)cc2)CC1 | 40 | 52 | 
8 | COc1ccccc1N1CCN(CCCCOc2ccc(-c3cn4ccccc4n3)cc2)CC1 | 0.72 | 179 | 
9 | COc1ccccc1N1CCN(CCCOc2ccc(-c3cn4cc(C)ccc4n3)cc2)CC1 | 176 | 78 | 
10 | COc1ccccc1N1CCN(CCCCOc2ccc(-c3cn4cccc(C)c4n3)cc2)CC1 | 385 | 159 | 
11 | Cc1ccc2nc(-c3ccc(OCCCN4CCN(c5cccc(Cl)c5Cl)CC4)cc3)cn2c1 | 28.9 |  | 31
12 | Clc1cccc(N2CCN(CCCCOc3ccc(-c4cn5ccccc5n4)cc3)CC2)c1Cl | 38 | 68 | 
13 | COc1ccccc1N1CCN(CCCOc2ccc(-c3cn4ccc(C)cc4n3)cc2)CC1 | 71 | 78 | 
14 | Cc1cccn2cc(-c3ccc(OCCCCN4CCN(c5cccc(Cl)c5Cl)CC4)cc3)nc12 | 54.4 | 560 | 
15 | Cc1cccn2cc(-c3ccc(OCCCN4CCN(c5cccc(Cl)c5Cl)CC4)cc3)nc12 | 225 | 125 | 
16 | Clc1cccc(N2CCN(CCCOc3ccc(-c4cn5ccccc5n4)cc3)CC2)c1Cl | 156 | 44 | 
